Source: BindingDB's records for doi:10.1021/jm960274q (Basf, 1996)

Biological target: Endothelin receptor type B (Cavia porcellus)
Assay: Binding affinity towards Endothelin B receptor by measuring its ability to displace [125I]ET-3 from guinea pig cerebellum

| SMILES | Ki [nM] |
| --- | --- |
| CCOc1cc(OCC)nc(OC(C(=O)O)C(OC)(c2ccccc2)c2ccccc2)n1 (centres undefined) [2-(4,6-Diethoxy-pyrimidin-2-yloxy)-3-methoxy-3,3-diphenyl-propionic acid] | 2500 |
| COc1cc(OC)nc(OC(C(=O)O)C(OC)(c2ccccc2F)c2ccccc2F)n1 (centres undefined) [2-(4,6-Dimethoxy-pyrimidin-2-yloxy)-3,3-bis-(2-fluoro-phenyl)-3-methoxy-propionic acid] | 6000 |
| COc1cc(OC)nc(OC(C(=O)O)C(OC)(c2cccc(F)c2)c2cccc(F)c2)n1 (centres undefined) [2-(4,6-Dimethoxy-pyrimidin-2-yloxy)-3,3-bis-(3-fluoro-phenyl)-3-methoxy-propionic acid] | 1800 |
| COc1cc(OC)nc(OC(C(=O)O)C(O)(c2ccccc2)c2ccccc2)n1 (centres undefined) [2-(4,6-Dimethoxy-pyrimidin-2-yloxy)-3-hydroxy-3,3-diphenyl-propionic acid] | 3500 |
| COc1cc(OC)nc(OC(C(=O)O)C(OC)(c2cccc(C)c2)c2cccc(C)c2)n1 (centres undefined) [2-(4,6-Dimethoxy-pyrimidin-2-yloxy)-3-methoxy-3,3-di-m-tolyl-propionic acid] | 1300 |
| COc1cc(OC)nc(OC(C(=O)O)C(OC)(c2ccc(C)cc2)c2ccc(C)cc2)n1 (centres undefined) [2-(4,6-Dimethoxy-pyrimidin-2-yloxy)-3-methoxy-3,3-di-p-tolyl-propionic acid] | 1000 |
| COc1cc(OC)nc(OC(C(=O)O)C(Oc2ccccc2)(c2ccccc2)c2ccccc2)n1 (centres undefined) [2-(4,6-Dimethoxy-pyrimidin-2-yloxy)-3-phenoxy-3,3-diphenyl-propionic acid] | 1500 |
| CCc1cc(C)nc(OC(C(=O)O)C(OC)(c2ccccc2)c2ccccc2)n1 (centres undefined) [2-(4-Ethyl-6-methyl-pyrimidin-2-yloxy)-3-methoxy-3,3-diphenyl-propionic acid] | 160 |
| COc1cc(OC)nc(OC(C(=O)O)C(OC)(c2ccc(Cl)cc2)c2ccc(Cl)cc2)n1 (centres undefined) [3,3-Bis-(4-chloro-phenyl)-2-(4,6-dimethoxy-pyrimidin-2-yloxy)-3-methoxy-propionic acid] | 1300 |
